Measured values reported in US20250066371A1, “FLUOROALKOXYALKYLENE-DIHYDROIMIDAZO[5,1-D]TETRAZINONE COMPOUNDS AND RELATED COMPOUNDS AND THEIR USE IN TREATING MEDICAL CONDITIONS” (priority 2023, published 2025).

Assays:
Experiment in all cases: Cell panel nuclear dye assay
Type in all cases: cell-based
SHP-77 = settings: Homo sapiens, SHP77, 120 h, Lung (SCLC), 5-day incubation
Protocol: (§1) Cells were grown in RPMI1640, 10% FBS, 2 mM L-alanyl-L-glutamine, 1 mM Na pyruvate, or a special medium. Cells were seeded into 384-well plates and incubated in a humidified atmosphere of 5% CO2 at 37° C. Compound was added the day following cell seeding. At the same time, a time zero untreated cell plate was generated. After a 5-day incubation period, cells were fixed and stained to allow fluorescence imaging of nuclei.
(§2) Compounds were serially diluted in 2-fold steps from the highest test concentration specified, and assayed over 10 concentrations with a maximum assay concentration of 0.1% DMSO. Automated fluorescence microscopy was carried out using a Molecular Devices ImageXpress Micro XL high-content imager, and images were collected with a 4× objective. 16-bit TIFF images were acquired and analyzed with MetaXpress 5.1.0.41 software.
(§3) Cell proliferation was measured by the fluorescence intensity of an incorporated nuclear dye. The output is referred to as the relative cell count, where the measured nuclear intensity is transformed to percent of control (POC) using the following formula: […]
(§4) Cell count IC50 is the test compound concentration at 50% of maximal possible response. EC50 is the test compound concentration at the curve inflection point or half the effective response (parameter C of the fitted curve solution). GI50 is the concentration needed to reduce the observed growth by half (midway between the curve maximum and the time zero value). Activity area is an estimate of the integrated area above the curve. Activity area values range from 0-10, where a value of zero indicates no inhibition of proliferation at all concentrations, and a value of 10 indicates complete inhibition of proliferation at all concentrations. In rare instances, values <0 or >10 may be observed. In these instances, values <0 should be considered as equivalent to 0, whereas values >10 should be considered equivalent to 10.

5637 = settings: 120 h, Bladder, 5-day incubation
Protocol: as §1, §2, §3, §4

Jiyoye = settings: Homo sapiens, 120 h, Lymphoma (Burkitt's), 5-day incubation
Protocol: as §1, §2, §3, §4

SR = settings: Homo sapiens, 120 h, Lymphoma (large cell immunoblastic), 5-day incubation
Protocol: as §1, §2, §3, §4

ST486 = settings: Homo sapiens, 120 h, Lymphoma (Burkitt's), 5-day incubation
Protocol: as §1, §2, §3, §4

SK-N-AS = settings: Homo sapiens, 120 h, Neuroblastoma, 5-day incubation
Protocol: as §1, §2, §3, §4

A427 = settings: Homo sapiens, A-427, 120 h, Lung (NSCLC), 5-day incubation
Protocol: as §1, §2, §3, §4

T24 = settings: Homo sapiens, T-24, 120 h, Bladder, 5-day incubation
Protocol: as §1, §2, §3, §4

A101D = settings: Homo sapiens, 120 h, Melanoma, 5-day incubation
Protocol: as §1, §2, §3, §4

BFTC-905 = settings: Homo sapiens, 120 h, Bladder, 5-day incubation
Protocol: as §1, §2, §3, §4

DMS53 = settings: Homo sapiens, DMS-53, 120 h, Lung (SCLC), 5-day incubation
Protocol: as §1, §2, §3, §4

C32TG = settings: 120 h, Melanoma, 5-day incubation
Protocol: as §1, §2, §3, §4

SW620 = settings: Homo sapiens, SW-620, 120 h, Colon, 5-day incubation
Protocol: as §1, §2, §3, §4

CHP-212 = settings: Homo sapiens, 120 h, Neuroblastoma, 5-day incubation
Protocol: as §1, §2, §3, §4

NCI-H69 = settings: Homo sapiens, 120 h, Lung (SCLC), 5-day incubation
Protocol: as §1, §2, §3, §4

647-V = settings: Homo sapiens, 120 h, Bladder, 5-day incubation
Protocol: as §1, §2, §3, §4

KHOS-240S = settings: 120 h, Osteosarcoma, 5-day incubation
Protocol: as §1, §2, §3, §4

SW48 = settings: Homo sapiens, 120 h, Colon, 5-day incubation
Protocol: as §1, §2, §3, §4

NCI-H661 = settings: Homo sapiens, 120 h, Lung (NSCLC), 5-day incubation
Protocol: as §1, §2, §3, §4

BCP-1 = settings: 120 h, Lymphoma (B-cell), 5-day incubation
Protocol: as §1, §2, §3, §4

A-253 = settings: Homo sapiens, A253, 120 h, Head & neck (epidermoid carcinoma, salivary gland), 5-day incubation
Protocol: as §1, §2, §3, §4

DK-MG = settings: 120 h, Glioma, 5-day incubation
Protocol: as §1, §2, §3, §4

OE21 = settings: 120 h, Head & neck (squamous cell carcinoma, esophagus), 5-day incubation
Protocol: as §1, §2, §3, §4

TUR = settings: 120 h, Lymphoma (histiocytic), 5-day incubation
Protocol: as §1, §2, §3, §4

Colo 320DM = settings: Homo sapiens, 120 h, Colon, 5-day incubation
Protocol: as §1, §2, §3, §4

639-V = settings: Homo sapiens, 120 h, Bladder (ureter), 5-day incubation
Protocol: as §1, §2, §3, §4

Q: `NC(=O)c1ncn2c(=O)n(CCOC(F)(F)F)nnc12` [Compound I-1, 4-Oxo-3-(2-(trifluoromethoxy)ethyl)-3,4-dihydroimidazo[5,1-d][1,2,3,5]tetrazine-8-carboxamide] was tested. Which EC50 (SHP-77) did it give?
A: 30 to 70 µM

Q: And the IC50 (SHP-77)?
A: 70 to 150 µM

Q: And the EC50 5637?
A: 30 to 70 µM

Q: And the IC50 5637?
A: 30 to 70 µM

Q: And the EC50 (Jiyoye)?
A: 30 to 70 µM

Q: And the IC50 (Jiyoye)?
A: 30 to 70 µM

Q: What about the EC50 (SR) of the same compound?
A: ≤ 30 µM

Q: And the IC50 (SR)?
A: ≤ 30 µM

Q: What about the EC50 (ST486) of the same compound?
A: ≤ 30 µM

Q: And the IC50 (ST486)?
A: ≤ 30 µM

Q: And the EC50 (SK-N-AS)?
A: > 150 µM

Q: What about the IC50 (SK-N-AS) of the same compound?
A: > 150 µM

Q: What about the EC50 (A427) of the same compound?
A: 30 to 70 µM

Q: And the IC50 (A427)?
A: 30 to 70 µM

Q: What about the EC50 (T24) of the same compound?
A: 30 to 70 µM

Q: What about the IC50 (T24) of the same compound?
A: > 150 µM

Q: What about the EC50 (A101D) of the same compound?
A: ≤ 30 µM

Q: And the IC50 (A101D)?
A: ≤ 30 µM

Q: What about the EC50 (BFTC-905) of the same compound?
A: 30 to 70 µM

Q: What about the IC50 (BFTC-905) of the same compound?
A: 30 to 70 µM

Q: And the EC50 (DMS53)?
A: ≤ 30 µM

Q: And the IC50 (DMS53)?
A: ≤ 30 µM

Q: What about the EC50 (C32TG) of the same compound?
A: ≤ 30 µM

Q: What about the IC50 (C32TG) of the same compound?
A: ≤ 30 µM

Q: What about the EC50 (SW620) of the same compound?
A: 70 to 150 µM

Q: What about the IC50 (SW620) of the same compound?
A: 70 to 150 µM

Q: And the EC50 (CHP-212)?
A: ≤ 30 µM

Q: What about the IC50 (CHP-212) of the same compound?
A: ≤ 30 µM

Q: And the EC50 (NCI-H69)?
A: ≤ 30 µM

Q: And the IC50 (NCI-H69)?
A: ≤ 30 µM

Q: And the EC50 (647-V)?
A: 30 to 70 µM

Q: What about the IC50 (647-V) of the same compound?
A: 30 to 70 µM

Q: What about the EC50 (KHOS-240S) of the same compound?
A: > 150 µM

Q: And the IC50 (KHOS-240S)?
A: > 150 µM

Q: And the EC50 (SW48)?
A: ≤ 30 µM

Q: What about the IC50 (SW48) of the same compound?
A: ≤ 30 µM

Q: And the EC50 (NCI-H661)?
A: ≤ 30 µM

Q: What about the IC50 (NCI-H661) of the same compound?
A: > 150 µM

Q: What about the EC50 (BCP-1) of the same compound?
A: ≤ 30 µM

Q: And the IC50 (BCP-1)?
A: ≤ 30 µM

Q: And the EC50 (A-253)?
A: 70 to 150 µM

Q: And the IC50 (A-253)?
A: 70 to 150 µM

Q: And the EC50 (DK-MG)?
A: ≤ 30 µM

Q: And the IC50 (DK-MG)?
A: 30 to 70 µM

Q: What about the EC50 (OE21) of the same compound?
A: 30 to 70 µM

Q: What about the IC50 (OE21) of the same compound?
A: 30 to 70 µM

Q: What about the EC50 (TUR) of the same compound?
A: ≤ 30 µM

Q: And the IC50 (TUR)?
A: ≤ 30 µM

Q: What about the EC50 (Colo 320DM) of the same compound?
A: 30 to 70 µM

Q: And the IC50 (Colo 320DM)?
A: 30 to 70 µM

Q: And the EC50 (639-V)?
A: ≤ 30 µM

Q: What about the IC50 (639-V) of the same compound?
A: ≤ 30 µM
